Assay results as given in patent US20240287047A1, “PESTICIDALLY ACTIVE DIAZINE-AMIDE COMPOUNDS” (SYNGENTA CROP PROTECTION AG, priority 2021, published 2024).

Tests used:
Assay type in all cases: in vivo
[1] = test system: Chilo suppressalis; experiment: Example B1: Chilo suppressalis (striped rice stemborer), artificial diet, L2 larvae; settings: 144 h, application rate of 200 ppm, 6 days after infestation, read-out: control in at least one of the three categories (mortality, anti-feedant effect, or growth inhibition)
Protocol: 24-well microtiter plates with artificial diet were treated with aqueous test solutions prepared from 10,000 ppm DMSO stock solutions by pipetting. After drying, the plates were infested with L2 larvae (6-8 per well). The samples were assessed for mortality, anti-feeding effect, and growth inhibition in comparison to untreated samples 6 days after infestation. Control of Chilo suppressalis by a test sample is given when at least one of the categories mortality, anti-feedant effect, and growth inhibition is higher than the untreated sample.

[2] = test system: Diabrotica balteata; experiment: Example B2: Diabrotica balteata (corn root worm), maize sprouts, L2 larvae; settings: for percent control (mortality or growth inhibition) at 200 ppm: Diabrotica balteata, 96 h, application rate of 200 ppm, 4 days after infestation, read-out: control in at least one of the two categories (mortality or growth inhibition); for mortality at 50 ppm: Concentration 50 ppm, Diabrotica balteata (Example B32)
Protocol: Maize sprouts placed onto an agar layer in 24-well microtiter plates were treated with aqueous test solutions prepared from 10,000 ppm DMSO stock solutions by spraying. After drying, the plates were infested with L2 larvae (6 to 10 per well). The samples were assessed for mortality and growth inhibition in comparison to untreated samples 4 days after infestation.

[3] = test system: Plutella xylostella; experiment: Example B4: Plutella xylostella (diamond back moth), artificial diet, eggs; settings: for percent control (mortality or growth inhibition) at 200 ppm: Plutella xylostella, 192 h, application rate of 200 ppm, 8 days after infestation, read-out: control in at least one of the two categories (mortality or growth inhibition); for mortality at 50 ppm: Concentration 50 ppm, Plutella xylostella (Example B4)
Protocol: 24-well microtiter plates with artificial diet were treated with aqueous test solutions prepared from 10′000 ppm DMSO stock solutions by pipetting. After drying, Plutella eggs were pipetted through a plastic stencil onto a gel blotting paper and the plate was closed with it. The samples were assessed for mortality and growth inhibition in comparison to untreated samples 8 days after infestation.

[4] = test system: Spodoptera littoralis; experiment: Example B5: Spodoptera littoralis (Egyptian cotton leaf worm), cotton leaf discs, L1 larvae; settings: foliar, 72 h, application rate of 200 ppm, 3 days after infestation, read-out: control in at least one of the three categories (mortality, anti-feedant effect, or growth inhibition)
Protocol: Cotton leaf discs were placed onto agar in 24-well microtiter plates and sprayed with aqueous test solutions prepared from 10,000 ppm DMSO stock solutions. After drying the leaf discs were infested with five L1 larvae. The samples were assessed for mortality, anti-feeding effect, and growth inhibition in comparison to untreated samples 3 days after infestation. Control of Spodoptera littoralis by a test sample is given when at least one of the categories mortality, anti-feedant effect, and growth inhibition is higher than the untreated sample.

| Compound | percent control (mortality, anti-feedant effect or growth inhibition) at 200 ppm [1] [%] | percent control (mortality or growth inhibition) at 200 ppm [2] [%] | percent control (mortality or growth inhibition) at 200 ppm [3] [%] | percent control (mortality, anti-feedant effect or growth inhibition) at 200 ppm [4] [%] | mortality at 50 ppm [3] [%] | mortality at 50 ppm [2] [%] |
| --- | --- | --- | --- | --- | --- | --- |
| C[C@H](NC(=O)c1cc(I)cc(C(F)(F)F)c1)c1nccnc1-c1cnccn1 [Compound E4, 3-iodo-N-[(1S)-1-(3-pyrazin-2-ylpyrazin-2-yl)ethyl]-5-(trifluoromethyl)benzamide] | ≥ 80 | ≥ 80 | ≥ 80 | ≥ 80 |  |  |
| C[C@H](NC(=O)c1cc(I)cc(I)c1)c1nccnc1-c1cnccn1 [Compound E5, 3,5-diiodo-N-[(1S)-1-(3-pyrazin-2-ylpyrazin-2-yl)ethyl]benzamide] |  | ≥ 80 | ≥ 80 | ≥ 80 |  |  |
| C[C@H](NC(=O)c1cc(Br)cc(Br)c1)c1nccnc1-c1cnccn1 [Compound E6, 3,5-dibromo-N-[(1S)-1-(3-pyrazin-2-ylpyrazin-2-yl)ethyl]benzamide] |  | ≥ 80 | ≥ 80 | ≥ 80 |  |  |
| C[C@H](NC(=O)c1cc(C(F)F)cc(C(F)(F)F)c1)c1nccnc1-c1cnccn1 [Compound E8, 3-(difluoromethyl)-N-[(1S)-1-(3-pyrazin-2-ylpyrazin-2-yl)ethyl]-5-(trifluoromethyl)benzamide] | ≥ 80 | ≥ 80 | ≥ 80 | ≥ 80 |  |  |
| C[C@@H](c1nccnc1-c1cnccn1)N(C)C(=O)c1cc(I)cc(C(F)(F)F)c1 [Compound E9, 3-iodo-N-methyl-N-[(1S)-1-(3-pyrazin-2-ylpyrazin-2-yl)ethyl]-5-(trifluoromethyl)benzamide] |  | ≥ 80 |  | ≥ 80 |  |  |
| C[C@@H](c1nccnc1-c1cnccn1)N(C)C(=O)c1cc(I)cc(I)c1 [Compound E10, 3,5-diiodo-N-methyl-N-[(1S)-1-(3-pyrazin-2-ylpyrazin-2-yl)ethyl]benzamide] |  | ≥ 80 |  | ≥ 80 |  |  |
| C[C@@H](c1nccnc1-c1cnccn1)N(C)C(=O)c1cc(C(F)F)cc(C(F)(F)F)c1 [Compound E13, 3-(difluoromethyl)-N-methyl-N-[(1S)-1-(3-pyrazin-2-ylpyrazin-2-yl)ethyl]-5-(trifluoromethyl)benzamide] |  | ≥ 80 |  | ≥ 80 |  |  |
| CC(NC(=O)c1cc(C(F)(F)F)cc(C(F)(F)F)c1)c1nccnc1-c1cnccn1 (centres unmarked) [Compound P1, N-[1-(3-pyrazin-2-ylpyrazin-2-yl)ethyl]-3,5-bis (trifluoromethyl)benzamide] | ≥ 80 | ≥ 80 | ≥ 80 | ≥ 80 |  |  |
| CC(NC(=O)c1cc(Br)nc(C2(C#N)CC2)c1)c1nccnc1-c1cnccn1 (centres unmarked) [Compound P3, 2-bromo-6-(1-cyanocyclopropyl)-N-[1-(3-pyrazin-2-ylpyrazin-2-yl)ethyl]pyridine-4-carboxamide] | ≥ 80 | ≥ 80 | ≥ 80 | ≥ 80 |  |  |
| CC(NC(=O)c1cc(C(F)(F)F)nc(C2(C#N)CC2)c1)c1nccnc1-c1cnccn1 (centres unmarked) [Compound P4] | ≥ 80 | ≥ 80 | ≥ 80 | ≥ 80 |  |  |
| CC(NC(=O)c1cc(Cl)cc(C(F)(F)F)c1)c1nccnc1-c1cnccn1 (centres unmarked) [Compound P6, 3-chloro-N-[1-(3-pyrazin-2-ylpyrazin-2-yl)ethyl]-5-(trifluoromethyl)benzamide] | ≥ 80 |  | ≥ 80 | ≥ 80 | 100 |  |
| CC(NC(=O)c1cc(Cl)cc(OC(F)(F)F)c1)c1nccnc1-c1cnccn1 (centres unmarked) [Compound P9, 3-chloro-N-[1-(3-pyrazin-2-ylpyrazin-2-yl)ethyl]-5-(trifluoromethoxy)benzamide] | ≥ 80 | ≥ 80 | ≥ 80 |  |  |  |
| CC(NC(=O)c1cc(Br)cc(Br)c1)c1nccnc1-c1cnccn1 (centres unmarked) [Compound P15, 3,5-dibromo-N-[1-(3-pyrazin-2-ylpyrazin-2-yl)ethyl]benzamide] |  | ≥ 80 | ≥ 80 |  |  |  |
| CC(NC(=O)c1cc(C2CC2)cc(C(F)(F)F)c1)c1nccnc1-c1cnccn1 (centres unmarked) [Compound P19, 3-cyclopropyl-N-[1-(3-pyrazin-2-ylpyrazin-2-yl)ethyl]-5-(trifluoromethyl)benzamide] | ≥ 80 | ≥ 80 | ≥ 80 |  | 100 |  |
| CC(NC(=O)c1cc(C(F)(F)F)cc(S(=O)(=O)C(F)(F)F)c1)c1nccnc1-c1cnccn1 (centres unmarked) [Compound P22, N-[1-(3-pyrazin-2-ylpyrazin-2-yl)ethyl]-3-(trifluoromethyl)-5-(trifluoromethylsulfonyl)benzamide] | ≥ 80 |  | ≥ 80 |  |  |  |
| CC(NC(=O)c1cc(I)cc(C(F)(F)F)c1)c1nccnc1-c1cnccn1 (centres unmarked) [Compound P23, 3-iodo-N-[1-(3-pyrazin-2-ylpyrazin-2-yl)ethyl]-5-(trifluoromethyl)benzamide] |  | ≥ 80 | ≥ 80 | ≥ 80 |  |  |
| CC(NC(=O)c1cc(Cl)cc(SC(F)(F)F)c1)c1nccnc1-c1cnccn1 (centres unmarked) [Compound P28, 3-chloro-N-[1-(3-pyrazin-2-ylpyrazin-2-yl)ethyl]-5-(trifluoromethylsulfanyl)benzamide] |  | ≥ 80 | ≥ 80 | ≥ 80 |  |  |
| CC(c1nccnc1-c1cnccn1)N(C)C(=O)c1cc(Cl)cc(C(F)(F)F)c1 (centres unmarked) [Compound P30, 3-chloro-N-methyl-N-[1-(3-pyrazin-2-ylpyrazin-2-yl)ethyl]-5-(trifluoromethyl)benzamide] | ≥ 80 | ≥ 80 | ≥ 80 |  |  |  |
| CC(NC(=O)c1cc(Cl)cc(S(=O)(=O)C(F)(F)F)c1)c1nccnc1-c1cnccn1 (centres unmarked) [Compound P33, 3-chloro-N-[1-(3-pyrazin-2-ylpyrazin-2-yl)ethyl]-5-(trifluoromethylsulfonyl)benzamide] | ≥ 80 |  | ≥ 80 |  |  |  |
| CC(NC(=O)c1cc(Br)cc(Br)c1)c1nccnc1-c1cnc(Cl)cn1 (centres unmarked) [Compound P36, 3,5-dibromo-N-[1-[3-(5-chloropyrazin-2-yl)pyrazin-2-yl]ethyl]benzamide] |  | ≥ 80 | ≥ 80 | ≥ 80 |  |  |
| CC(NC(=O)c1cc(C(F)(F)F)cc(S(C)(=O)=O)c1)c1nccnc1-c1cnc(C#N)cn1 (centres unmarked) [Compound P39, N-[1-[3-(5-cyanopyrazin-2-yl)pyrazin-2-yl]ethyl]-3-methylsulfonyl-5-(trifluoromethyl)benzamide] | ≥ 80 |  | ≥ 80 | ≥ 80 |  |  |
| CC(NC(=O)c1cc(Cl)cc(C(F)(F)F)c1)c1nccnc1-c1ccccn1 (centres unmarked) [Example 1 of WO 2021/068179, reference compound] |  |  |  |  | 0 |  |
| CC(NC(=O)c1cc(C(F)F)cc(C(F)(F)F)c1)c1nccnc1-c1ncccn1 (centres unmarked) [P22 of WO 2020/070049, reference compound] |  |  |  |  |  | 80 |
| CC(NC(=O)c1cc(C(F)(F)F)cc(C2(C#N)CC2)c1)c1nccnc1-c1ncccn1 (centres unmarked) [P25 of WO 2020/201398, reference compound] |  |  |  |  |  | 50 |
| CC(NC(=O)c1cc(C2CC2)cc(C(F)(F)F)c1)c1nccnc1-c1ccccn1 (centres unmarked) [P33 of WO 2020/201398, reference compound] |  |  |  |  | 50 |  |
